Data as given in patent US12180181B1, “4-[4,5-bis(4-bromophenyl)-1-hexyl-1H-imidazol-2-yl]isoquinolin-3-ol as an antimicrobial compound” (KING FAISAL UNIVERSITY, priority 2023, dated 2024).

What was measured:
Type in all cases: cell-based
Details in all cases: after 10, 20, 40 and 60 minutes at all dilutions 1:100, 1:200, 1:400, 1:800
Staphylococcus aureus = experiment: Antimicrobial screening by agar dilution, Staphylococcus aureus
Procedure: (§1) The antimicrobial properties of the 4-[4,5-bis(4-bromophenyl)-1-hexyl-1H-imidazol-2-yl]isoquinolin-3-ol was studied by the method of agar dilution. Test solutions of each compound was prepared in concentration of 1% using dimethylformamide as a solvent then they are diluted in physiological solution to obtain the final experimental dilutions 1:100, 1:200, 1:400, 1:800. The effect of these substances are compared with furacillin in a controlled study. The testing microbes used were gram positive bacteria Staphylococcus aureus, gram negative bacteria Pseudomonas aeruginosa and Escherichia coli and Candida albicans fungi were taken. The experiments used for this survey were meat-pentonlu agar (EPA) for cultivation of bacteria and Saburo environment for fungi. Each experiment used 1 ml of test solution on each plate 500 min. Add 2 drops of emulsified with microbes feel. All experimental samples were taken from the agar after 10, 20, 40, 60 minutes in the environment on the basis of Patrk planted. Bacteria were cultivated at a temperature of 37° C. for 1 day and the mushroom was kept in a thermostat for […] at a temperature of 28° C. in the. Then results were checked.

Escherichia coli = experiment: Antimicrobial screening by agar dilution, Escherichia coli
Procedure: as §1

Pseudomonas aeruginosa = experiment: Antimicrobial screening by agar dilution, Pseudomonas aeruginosa
Procedure: as §1

Candida albicans = experiment: Antimicrobial screening by agar dilution, Candida albicans
Procedure: as §1

Measured: inhibition activity (in words)

CCCCCCn1c(-c2c(O)ncc3ccccc23)nc(-c2ccc(Br)cc2)c1-c1ccc(Br)cc1 [4-[4,5-bis(4-bromophenyl)-1-hexyl-1H-imidazol-2-yl]isoquinolin-3-ol]
highest inhibition activity: all assays above
